Test [1] has as its system INS-1E cells. Kind of test: Ins-1E cell proliferation assay (BrdU incorporation). Type of test: cell-based, rat. The note with it: maximum at 1 μM. On the procedure:
The proliferation rate of Ins-1E cells was determined by monitoring DNA synthesis using a 5-bromo-2′-deoxyuridine (BrdU) incorporation assay. BrdU is a halogenated nucleotide analogue of thymidine that is incorporated into DNA during the S-phase of the cell cycle. Pulse-labeling of DNA with BrdU and subsequent immunohistochemical detection of labeled nuclei was used to study the rate of cell proliferation. The treatment of INS-1E cells with 4-Azakenpaullone for 24 hours increases BrdU incorporation of Ins-1E cells in a concentration dependent manner, reaching a maximum of about 1.4 fold between 5 μM and 10 μM 4-AKP.
The proliferation of Ins-1E insulinoma cells was determined by monitoring DNA synthesis as an indirect parameter of cell proliferation. The incorporation of the thymidine analogue 5-bromo-2′-deoxyuridine (BrdU) during replication into cellular DNA was used to label the DNA of mitotically active cells. After its incorporation into DNA, BrdU was detected by immunoassay.
10,000 Ins-1E cells were seeded per 96-well (black 96-well tissue culture plates, Falcon #353948) in 100 μl culture medium (RPMI 1640 containing 11 mM glucose, 5% FCS, 10 mM HEPES, 50 μM 2-mercaptoethanol, 1 mM MEM sodium pyruvate, 100 U/ml penicillin, 100 μg/ml streptomycin) and cultivated at 37° C., 5% CO2 in humidified atmosphere for 3 days. Media was changed to 100 μl starvation medium (culture medium with only 5 mM glucose, 1% FCS) and the cells were re-incubated for 1 day. Then media was exchanged to starvation medium containing test substances and the cells were further incubated for 24 h. For the last 4 hours BrdU was added to reach a concentration of 10 μM. Cell proliferation ELISA (Cell Proliferation ELISA, BrdU, chemiluminescence, Roche, cat. No. 1669915) was performed according to the manufacturers guidelines.

The test system of test [2] is INS-1E cells. Kind of test: DNA-fragmentation ELISA in glucose/palmitate stressed cells. Type of test: cell-based, rat. The note with it: 2.5 μM, glucose/palmitate 24 hours. On the procedure:
(§1) The effects of the substance on cell viability, cell growth and specific apoptotic events such as caspases activity and DNA-fragmentation was monitored. INS-1E cell apoptosis was induced by treatment of cell cultures with toxic concentrations of glucose and palmitate for 24 hours. The substance of interest was added to the medium 1 hour prior to the addition of the toxic agents.
DNA-fragmentation is a comparatively late apoptotic event comprising storage of nucleosomal DNA-fragments as mono- and oligo nucleosomes in the cytoplasm. The incubation of INS1-E cells with high concentrations of glucose and palmitate for 24 hours leads to DNA breakdown and the accumulation of nucleosomal DNA fragments in the cytoplasm. The detectable amount of cytosolic nucleosomal DNA fragments was reduced by about 17%, when cells were treated with the apoptosis inducing agents in combination with 10 μM 4-AKP.
(§2) 10,000 Ins-1E cells were seeded per 96-well (black 96-well tissue culture plates, Falcon #353948) in 100 μl culture medium (RPMI 1640 containing 11 mM glucose, 5% FCS, 10 mM HEPES, 50 μM 2-mercaptoethanol, 1 mM MEM sodium pyruvate, 100 U/ml penicillin, 100 μg/ml streptomycin) and cultivated at 37° C., 5% CO2 in humidified atmosphere for 3 days. Media was changed to 100 μl starvation medium (culture medium with only 5 mM glucose, 1% FCS) and the cells were re-incubated for 1 day. Then media was exchanged to starvation medium containing test substances.
(§3) Apoptosis of Ins-1E cells was induced by addition of a combination of BSA coupled palmitate and glucose (pal/gluc) or a combination of cytokines (cyt) 1 hour after starting the treatment with test substances: pal/gluc: 0.3 mM palmitate:BSA (palmitic acid sodium salt:fatty acid free BSA 6:1) and 25 mM glucose. 10×cyt: 0.04 ng/ml IL-1β and 1 ng/ml IFNγ. The cells were further incubated with test substances and apoptotic inducer for 24 hours.
DNA-fragmentation is a late apoptotic event comprising storage of nucleosomal DNA-fragments as mono- and oligo nucleosomes in the cytoplasm. Their concentration was determined by ELISA (Cell death detection ELISA, Roche, cat. No. 1774425) according to the manufacturers guidelines.

In test [3] the test system is INS-1E cells. Kind of test: Glucolipotoxicity induced apoptosis of INS-1E cells (overall assessment). Format: cell-based, rat. The note with it: palmitate and glucose, 24 hours. On the procedure:
as §1
The effects of the test compounds on beta cell function were assessed using biological assays monitoring cellular metabolic activity as well as specific apoptotic events in Ins-1E cells.
as §2, §3

Test [4] has as its system Pax4 gene. Kind of test: Pax4 transcription by quantitative real time RT-PCR. Type of test: cell-based, rat. On the procedure: FIG. 11 illustrates a representative experiment in which the relative Pax4 levels were quantified using quantitative real time RT-PCR. […] Data are presented as relative levels to the basal Pax4 expression level in INS-1E cells only treated with the vehicle (Co.). Activin-A (1 nM) treated INS-1E cells serve as a positive control.
The response of the Pax4 gene to test compounds was investigated in the rat insulinoma cell line INS-1E. INS-1E cells are known to express Pax4 and to upregulate Pax4 levels in response to the treatment with activin-A and betacellulin. In the search for novel beta cell mitogens and/or beta cell protective agents the inventors treated INS-1E cells with test compound 10c. Compound 10c induces the relative Pax4 expression about 5-fold compared to the control and compared to 1 nM activin A (FIG. 11).
INS-1E cells were cultured as described (Merglen, (2004) Endocrinology; 145: 667-678). Cells were seeded at a density of 2×10^4 cells per cm^2 6 to 8 days before the treatment with chemicals. During the growth period the medium was changed once. […]
Total RNA from 8×10^4 cells growing on 4 cm^2 surface area of a tissue culture dish was extracted using Qiagen RNAeasy kit according to the instructions of the manufacturer (Qiagen) and 2 μg was converted into cDNA. […] Quantitative real-time PCR was performed using Applied Biosystems SDS 7000 detection system. […]

For test [5], the target named is T1, cyclin dependent kinase 1 (Homo sapiens, UniProt P06493).
T1 construct: purchased Upstate Ltd. (IC50 Profiler Express service)
T1 sequence (P06493 whole entry, species assumed): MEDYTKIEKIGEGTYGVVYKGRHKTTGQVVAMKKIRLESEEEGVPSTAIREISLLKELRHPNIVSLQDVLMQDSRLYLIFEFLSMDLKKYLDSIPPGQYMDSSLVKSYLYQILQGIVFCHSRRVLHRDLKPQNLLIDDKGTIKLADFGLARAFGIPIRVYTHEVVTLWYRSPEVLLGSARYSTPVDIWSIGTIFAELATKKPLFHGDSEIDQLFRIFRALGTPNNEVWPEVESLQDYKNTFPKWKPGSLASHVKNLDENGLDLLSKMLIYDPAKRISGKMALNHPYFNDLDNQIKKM
T1 sequence (P14635 whole entry partner, species assumed): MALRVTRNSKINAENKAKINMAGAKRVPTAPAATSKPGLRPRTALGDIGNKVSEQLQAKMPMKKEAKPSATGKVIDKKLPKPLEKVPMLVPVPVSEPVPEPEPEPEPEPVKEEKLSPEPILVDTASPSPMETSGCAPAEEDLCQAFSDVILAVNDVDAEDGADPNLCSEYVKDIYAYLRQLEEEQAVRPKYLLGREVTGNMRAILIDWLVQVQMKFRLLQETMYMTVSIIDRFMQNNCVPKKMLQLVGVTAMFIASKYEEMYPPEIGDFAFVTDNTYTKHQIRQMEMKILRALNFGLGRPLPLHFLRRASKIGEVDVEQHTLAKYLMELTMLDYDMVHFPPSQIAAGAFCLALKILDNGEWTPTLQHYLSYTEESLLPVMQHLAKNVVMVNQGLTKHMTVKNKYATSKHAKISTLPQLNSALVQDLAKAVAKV
Kind of test: IC50 Profiler Express kinase assay. Format: biochemical. On the procedure: (§4) Experiments were carried out by Upstate Ltd. according to the protocols described in KinaseProfiler™ Assay Protocols, IC50 Profiler Express™ (10-point curves in duplicate) Fall 2004 by Ustate Cell Signaling solutions.

In test [6] the test system is human GSK3. Kind of test: IC50 Profiler Express kinase assay. The note with it: 10-point curves in duplicate. Format: biochemical. On the procedure:
as §4

For `N#Cc1ccc2[nH]c3c(c2c1)CC(=O)Nc1cccnc1-3` [Compound 10c, 6-Oxo-5,6,7,12-tetrahydropyrido[3′,2′:2,3]azepino[4,5-b]indole-9-carbonitrile], the “BrdU incorporation relative to untreated controls (maximum)” value in test [1] is given as “about 1.5 fold”. Besides, the “reduction of cytosolic DNA-fragments” value in test [2] was 74%. Further, in test [3], the “effect on glucolipotoxicity induced apoptosis” value is “strongly antagonizes glucolipotoxicity induced apoptosis”. In addition, the Pax4 gene transcription result in test [4] (2 μM) is on record as “transiently induce Pax4 gene transcription”. The “relative Pax4 expression compared to the control” value in test [4] (INS-1E cells, vehicle control) is “about 5 fold”. For the same molecule, in test [5], the “affinity to CDK1 relative to 1-Azakenpaullone” value was “higher affinity to CDK1 than the reference compound 1-Azakenpaullone”. The “inhibition of the enzymatic activity of cyclin dependent kinase 1” value in test [5] (compared with GSK3) was “comparatively higher concentration of this inhibitor are required”. In addition, the “inhibition of human GSK3” value in test [6] is reported as “potent inhibitor”.

For the origin of these results see patent US7968535B2, “Use of azapaullones for preventing and treating pancreatic autoimmune disorders” (Develogen Atkiengesellschaft, priority 2005, dated 2011).
